System: P. falciparum 3D7 growth, pLDH absorbance
Assay: blood-stage malaria parasite growth potency – strain 3D7, dose response (AID 2305)

Structure (SMILES) | IC50
CCNc1cc(C(=O)N[C@@H](Cc2ccccc2)[C@H](O)CNC(C)(C)Cc2cccc(Cl)c2)cc(N2CCCCS2(=O)=O)c1 | 890 nM
Cc1cc(Nc2cccc(Cl)c2)nc2ccc(NC(=O)c3ccc(=O)[nH]c3)cc12 | 1000 nM
Cc1ccc2sc(N3CCN(C(=O)c4ccc([N+](=O)[O-])o4)CC3)nc2c1C | 940 nM
O=C(Nc1ccc2c(c1)CN(Cc1ccc(N3CCCC3)o1)CCC2)c1ccoc1 | 950 nM
COc1ccc(CNC2CCN(C)CC2)cc1-c1ccc(S(=O)(=O)NCc2cccnc2)s1 | 840 nM
O=C(CCC1CCCC1)N(Cc1ccc(-c2ccc(CNCCc3ccccn3)cc2)cc1)CC1CCCCN1 (stereo not given) | 1150 nM
COc1ccc(O)c(-c2sc(N=C(N)N)nc2-c2ccccc2)c1 | 370 nM
Cc1ccccc1CNc1noc(-c2c(F)cccc2Cl)n1 | 720 nM
Cc1cc(N2CCCN(C)CC2)nc(Nc2ccc(Br)cc2)n1 | 720 nM
C=CCn1ccc2c3c(N)nc(N)nc3ccc21 | 70 nM
CCCCCCCNC(=O)NCC1CCCN(CCCCCNC(=O)/C=C/c2ccc(Cl)c(Cl)c2)C1 (stereo not given) | 1040 nM
Cc1cc2c(cc1C(F)(F)F)N(C(=O)Nc1ccc(C(=O)NCCN3CCCC3)cc1)CC2 | 320 nM
COc1ccc(C(=O)N2CCN(c3ccc([N+](=O)[O-])c(NC4CC4)c3)CC2)cc1Br | 800 nM
CN1CCC(N2CCN(Cc3cccc(-c4ccc(-c5nc6ccccc6[nH]5)cc4)c3)CC2)CC1 | 160 nM
FC(F)(F)COc1c(CNCCCCCCNCc2ccc3ccccc3c2OCC(F)(F)F)ccc2ccccc12 | 760 nM
O=C(N[C@H]1CCN(CCc2ccc(O[C@H]3CCNC3)cc2)C1)c1ccc(Cl)c(Cl)c1 | 830 nM
CCCOc1ccc(C(F)(F)F)cc1NC(=O)c1nc2nc(C)cc(C)n2n1 | 250 nM
Cc1cccc2[nH]c(-c3ccc(-c4ccc(CN5CCN(c6ccncc6)CC5)cc4)cc3)nc12 | 160 nM
Cc1cc(=O)c2cc(-c3ccc(OC(F)(F)F)cc3)ccc2[nH]1 | 480 nM
CNC(=O)C(C)N(c1ccc(Cl)cc1)c1nc(C(C)(C)C)cs1 (stereo not given) | 740 nM
COc1ccc2ncc(F)c(CCN3CCC(NCc4ccc5c(c4)CCO5)CC3)c2n1 | 680 nM
CCCCCCN1CCCN(Cc2ccc(C(=O)Nc3ccc(C(C)(C)C)cc3)cc2)CC1 | 740 nM
Cc1cccc2[nH]c(-c3cccc(-c4ccc(NC(=O)c5ccc(=O)[nH]n5)cc4)c3)nc12 | 860 nM
COc1ccc(CN(C)CCCCc2ccc(NC(=O)COc3cccc4sc5ccccc5c(=O)c34)cc2)cc1OC | 810 nM

Structure (SMILES) | IC50
FC(F)(F)c1cccc(Nc2nc(-c3ccccc3)nc3ncccc23)c1 | 800 nM
CS(=O)(=O)c1ccc(CCNCc2ccc(-c3ccc(CN(C(=O)c4ccco4)C4CCN(Cc5ccccc5)CC4)cc3)nc2)cc1 | 880 nM
N#Cc1ccc(NC(=O)N2CCCN(CCCCCNC(=O)/C=C/c3ccc(Cl)c(Cl)c3)CC2)cc1 | 770 nM
CC(C)(C)OC(=O)Cn1cnc2cc(NC(=O)c3cc([N+](=O)[O-])cc([N+](=O)[O-])c3)ccc21 | 310 nM
O=C(Nc1ccc(Cl)cc1Cl)N[C@H]1CCN(CCCCCNC(=O)[C@@H]2C[C@H]2c2ccc(Cl)c(Cl)c2)C1 | 990 nM
COc1cncc(/C=C/c2cncc(C(=O)NCCc3ccc(Cl)cc3Cl)c2)c1 | 880 nM
CCOC(=O)COc1cccc(CNc2ccc3nc(N)nc(N)c3c2)c1 | 410 nM
Cc1ccc(NC(=O)N2CCC(n3c(-c4ccccc4)nc4cccnc43)CC2)cc1F | 530 nM
CCCc1cc(Cc2cnc(N)nc2N)ccc1OCCCCCC(=O)OCC | 500 nM
Cc1cc(NCCc2ccccc2)nc(/N=C(\N)Nc2ccccc2Cl)n1 | 790 nM
O=C(/C=C/c1ccc(-c2nc3ccc(Cl)cc3[nH]2)cc1)NCc1cccc(F)c1 | 640 nM
C=CCC1OC(=O)c2cc(OC)cc(OC)c21 (stereo not given) | 340 nM
COc1cc2ncnc(Nc3ccc(Br)c(Cl)c3)c2cc1OC | 720 nM
CC(C)(C)c1ccc2nc(-c3ccc(C(=O)NCCCc4ccccc4)cc3)[nH]c2c1 | 800 nM
O=C(NCC1CCC(C(=O)NCc2cccc(C(F)(F)F)c2)CC1)c1ccc(O)c(-c2ccc(Cl)c(Cl)c2)c1 (stereo not given) | 710 nM
O=C(NC1CCN(Cc2ccccc2O)C1)c1cccc(C(F)(F)F)c1 (stereo not given) | 730 nM
CN(C)CCN(Cc1ccccc1-c1ccc(CNCCc2ccccc2)cc1)C(=O)NC1CCCCC1 | 910 nM
CC(C)(C)c1ccc(S(=O)(=O)Nc2ccccc2Cn2nc(N3CCNCC3)ccc2=O)cc1 | 850 nM
CC(C)(C)c1ccc(CN2CCC(CNC(=O)c3cc(-c4ccccc4F)cs3)C2)cc1 (stereo not given) | 560 nM
OCC1CCN(Cc2cccc(-c3ccc(-c4nc5ccc(F)cc5[nH]4)cc3)c2)CC1 | 720 nM
CN1CCC(NCc2ccc(-c3ccc(S(=O)(=O)NCc4ccccc4)cc3)cc2)CC1 | 830 nM
O=S(=O)(Nc1cccc(CCN2CCCCC2CCN2CCCC2)c1)c1ccc(Oc2ccccc2)cc1 (stereo not given) | 1050 nM
CCOC(=O)c1ccc(NC(=O)N[C@@H](Cc2ccccc2)C(=O)NC2CCN(Cc3ccc(OCCCN(C)C)cc3)C2)cc1 (stereo not given in full) | 700 nM
COc1cc(CNCCCNc2nc3ccsc3c(=O)[nH]2)c2[nH]cc(Cl)c2c1 | 890 nM

Structure (SMILES) | IC50
CCN(CC)CCN(Cc1ccc(-c2ccc(C(F)(F)F)cc2)cc1)C(=O)Cn1c(CCc2cc(F)c(F)cc2F)nc(=O)c2ccccc21 | 720 nM
O=C(Nc1cccc(CN2CCCN(Cc3cccc(F)c3)CC2)c1)c1ccc(Cl)c(Cl)c1 | 920 nM
C(=N\Nc1nccc2sc(-c3cccnc3)cc12)/c1cccnc1 | 420 nM
CCC[C@@H]([C@@H](CC1CCCCC1)C(=O)N[C@H](C(=O)Nc1nccs1)[C@@H](C)OCc1ccccc1)N(O)C=O | 80 nM
O=C(Nc1cccc(-c2nn3ccccc3c2-c2ccnc(Nc3cccc(N4CCCC4=O)c3)n2)c1)c1cc(F)ccc1F | 210 nM
Cc1[nH]c(C)c(-c2ccc(OCc3cccc(C(F)(F)F)c3)nc2)c(=O)c1Br | 40 nM
COc1ccc(C(C(=O)NC2CCN(C[C@H](O)c3ccnc4ccc(OC)cc34)CC2)N2CCc3ccccc3C2)cc1 (stereo not given in full) | 700 nM
CCN(CC)Cc1cccc(-c2cc3c(-c4ccc(C(=O)O)c(C(C)C)c4)ccnc3[nH]2)c1OC | 320 nM
c1ccc(CCNCc2cccc(-c3ccc(CNc4ccc5ncccc5c4)cc3)c2)cc1 | 810 nM
CC(C)NCc1ccc(OCc2cccc(COc3ccc(CNC(C)C)cc3I)c2)c(I)c1 | 90 nM
CN(CCc1ccccn1)c1cccc2c1nc(-c1cccnc1)n2CCNCc1ccccc1 | 1060 nM
CC(C)(C)c1ccc(Cn2nc(C(=O)N3CCN(C(=O)C4CCCO4)CC3)c3ccccc32)cc1 (stereo not given) | 1320 nM
COc1cccc(CN2CCCC(COC(c3ccc(F)cc3)c3ccc(F)cc3)C2)c1O (stereo not given) | 330 nM
COc1cc(C(=O)N2CCOC(CCN3CC[C@@H]4c5ccccc5C[C@@H]43)(c3ccc(Cl)c(Cl)c3)C2)cc(OC)c1OC (stereo not given in full) | 530 nM
N#Cc1c(N)n(CCc2ccc(F)cc2)c2nc3ccccc3nc12 | 970 nM
CS(=O)(=O)c1ccc(-c2cnc(N)c(-c3cccc(O)c3)c2)cc1 | 690 nM
Cn1cnc2c(SCc3ccccc3OCc3ccccc3)ncnc21 | 920 nM
CCCCOP(=O)(OCCCC)C(=Cc1ccc(O)c2ccccc12)P(=O)(OCCCC)OCCCC | 1070 nM
Cc1ccccc1C1CCN(C2CCC(NC(=O)c3ccc(-c4ccccn4)s3)CC2)CC1 (stereo not given) | 1180 nM
CN(C)CCOc1ccc(/C(=C(/CCCn2ccnc2)c2ccccc2)c2ccc(O)cc2)cc1 | 770 nM
COc1cccc(NC(=O)Nc2ccc(Nc3nc(C)cc(N4CCCC4)n3)cc2)c1 | 200 nM
NCC1CCCN1Cc1ccc(-c2cccc(-c3nc4ccc(C(F)(F)F)cc4[nH]3)c2)cc1 (stereo not given) | 830 nM
CC(C)CNC(=O)c1cncc(-c2ccc(CN(C)C3CCN(C)CC3)cc2)c1 | 880 nM
COc1ccc(CNC2Cc3ccccc3C2)cc1-c1cccc(S(=O)(=O)NCCN2CCCC2)c1 | 760 nM

Structure (SMILES) | IC50
O=C(Nc1cccc(CN2CCCN(Cc3ncc[nH]3)CC2)c1)c1ccc2ccccc2c1 | 630 nM
CC[C@H]1C[N+]2([O-])CC[C@@H]1C[C@H]2[C@H](O)c1cc(-c2ccccc2)nc2ccc(OC)cc12 | 840 nM
CCN(c1cc(C)nc(Nc2ccc(Cl)cc2)n1)[C@H]1CCN(Cc2ccccc2)C1 | 860 nM
O=C(Nc1ccc(NC2=NCCN2)cc1)c1ccc(C(=O)Nc2ccc(NC3=NCCN3)cc2)cc1 | 650 nM
Cc1ccc(C)c(NC(=O)NC2CCN(c3ccnc(Nc4ccc(F)cc4)n3)C2)c1 (stereo not given) | 680 nM
CCNc1cc(C(=O)N[C@@H](Cc2ccccc2)[C@H](O)CNCCc2cccc(C(F)(F)F)c2)cc(N2CCCC2=O)c1 | 880 nM
O=C(c1cccc(-c2ccc(-c3nc4ccc(F)cc4[nH]3)s2)c1)N1CCCCC1CN1CCC(O)C1 (stereo not given) | 720 nM
O=C(/C=C/c1ccccc1Cl)Nc1ccc(Br)c(OCCN2CCN(CCN3CCCC3)CC2)c1 | 650 nM
COc1ccc2nccc([C@@H](O)CN3CCC(NCc4ccc5c(c4)OCCO5)CC3)c2c1 | 290 nM
O=S(=O)(Nc1cc2c(cc1OCCCN1CCCCC1)CCNCC2)c1ccc(-c2ccc(Cl)cc2)cc1 | 1000 nM
CCNc1cc(C(=O)N[C@@H](Cc2ccccc2)[C@H](O)CNCc2cccc(-c3cncnc3)c2)cc(N2CCCC2=O)c1 | 660 nM
NC(=O)c1cccc(Nc2nccc(Nc3ccc(Oc4cccc(Cl)c4)c(Cl)c3)n2)c1 | 1280 nM
CN1CCc2ccc(NC(=O)Nc3ccc(Cl)c(Cl)c3)cc2C1 | 720 nM
O=C(Nc1ccc2c(c1)CCC2)c1nc(N2CCN(c3ccncc3)CC2)ccc1Cl | 1380 nM
COc1ccc(CCN(C)CCCN2CCC(NC(=O)c3cccc4c(=O)c5ccccc5sc34)CC2)cc1OC | 790 nM
CCCCCCc1c(C)[nH]c2cc(OC)ccc2c1=O | 120 nM
COc1ccc(NC(=O)NC2CCN(CCCOc3cc(C)nc4ccccc34)CC2)cc1OC | 1280 nM
CCc1c(C(=O)NC2CCC(N3CCC(c4ccccc4C)CC3)CC2)[nH]c2ccc(Br)cc12 (stereo not given) | 930 nM
O=C(Nc1ccc(OC2CCN(Cc3ccc(F)cc3)CC2)c(Cl)c1)c1ccoc1 | 1180 nM
CCOC(C(=O)OCC1CCCN1C(C)C)(c1ccccc1)c1ccccc1 (stereo not given) | 760 nM
CC(=O)Oc1c(C2C=CCCC2)c(OC(C)=O)c2ccccc2c1OC(C)=O (stereo not given) | 600 nM
COc1cc(CNC[C@@H](O)[C@H](Cc2ccccc2)NC(=O)c2cc(OC(C)C)cc(N3CCCCS3(=O)=O)c2)cc(OC)c1 | 590 nM
COc1ccc(CCn2c(=N)c(C(=O)NCc3ccccc3)cc3c(=O)n4ccccc4nc32)cc1 | 750 nM

Reference: PubChem BioAssay AID2305 (GlaxoSmithKline (GSK), 2010)
